From patent US20110086834A1, “ALKYNYL ALCOHOLS AS KINASE INHIBITORS” (AMGEN INC., priority 2008, published 2011) come the findings set out here.

In the test the target is T1, NIK (Homo sapiens, UniProt Q99558).
T1 construct: Both assays utilize a truncated form of NIK containing only the catalytic domain; made in house; host or cells: baculovirus expression system (insect cells implied)
T1 sequence (Q99558 400-655 limits assumed): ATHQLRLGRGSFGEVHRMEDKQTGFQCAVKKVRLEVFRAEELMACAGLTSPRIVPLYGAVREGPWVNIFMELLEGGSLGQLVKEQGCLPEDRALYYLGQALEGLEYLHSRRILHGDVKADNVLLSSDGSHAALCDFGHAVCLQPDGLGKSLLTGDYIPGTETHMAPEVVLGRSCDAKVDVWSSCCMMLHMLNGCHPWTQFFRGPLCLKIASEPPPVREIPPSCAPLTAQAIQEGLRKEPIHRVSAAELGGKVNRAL
Nature of the test: chemiluminescent (CL) assay for NIK IC50 determination. The format is biochemical. The following applies: truncated NIK (catalytic domain only), autophosphorylation; 50 nM biotinylated-NIK; 50 μM ATP; room temperature, 1 hour. As to the method: Two formats of biochemical assays are implemented: (1) chemiluminescent (CL) assay for NIK IC50 determination; (2) homogenous time resolved fluorescence (HTRF) assay for NIK Ki measurement. […] The NIK proteins are purified with baculovirus expression system and further biotinylated with N-hydroxysuccinamide biotin ester (Sigma). […] The reaction mixtures are then immobilized on a Streptavidin-coated plate (Pierce). […] For the HTRF assay, 10 nM of enzyme are incubated with compounds in the presence of 20, 100, 200, or 500 μM of ATP in a buffer with 20 mM of Hepes pH7.5, 20 mM of MgCl2, 0.2% of Tween 20 and 1 mM of DTT at room temperature for 2 hours.
Turning to `COCCOc1cnc(N)nc1-c1c[nH]c2ccc(C#CC(O)(c3ccccc3)C(F)(F)F)cc12` (centres unmarked) [Example 235, 4-(3-(2-Amino-5-(2-methoxyethoxy)-4-pyrimidinyl)-1H-indol-5-yl)-1,1,1-trifluoro-2-phenyl-3-butyn-2-ol], the IC50 (as a rule, the midpoint of a concentration-inhibition curve) was under 1000 nM.

In turn, `O=C(c1ccc(Nc2nccc(N3CCc4ccc(C#CC5(O)CCCC5)cc43)n2)cc1)N1CCOCC1` [Example 263, 1-((1-(2-((4-(4-morpholinylcarbonyl)phenyl)amino)-4-pyrimidinyl)-2,3-dihydro-1H-indol-6-yl)ethynyl)cyclopentanol] showed a concentration for half-maximal inhibition (IC50) of under 1000 nM. The value for `Nc1ncc(Cl)c(-c2cn(C3CCOC3)c3ccc(C#CC4(O)CCCC4)cc23)n1` (centres unmarked) [Example 138, 1-(2-(3-(2-amino-5-chloropyrimidin-4-yl)-1-(tetrahydrofuran-3-yl)-1H-indol-5-yl)ethynyl)cyclopentanol] was under 1000 nM. In the case of `COCCn1cc(-c2nc(N)ncc2Cl)c2cc(C#CC3(O)CC[C@@H](C)C3)ccc21` (stereo partly drawn) [Example 140, (3R)-1-(2-(3-(2-amino-5-chloropyrimidin-4-yl)-1-(2-methoxyethyl)-1H-indol-5-yl)ethynyl)-3-methylcyclopentanol], the half-inhibitory concentration (IC50) was under 1000 nM. The same measure for `CN1CCC2(C1)CN(c1ccnc(N)n1)c1cc(C#CC3(O)CCCC3)ccc12` (racemic) [Example 189, (rac)-1-((1-(2-Amino-4-pyrimidinyl)-1′-methyl-1,2-dihydrospiro[indole-3,3′-pyrrolidin]-6-yl)ethynyl)cyclopentanol]: under 1000 nM.
